Measurements reported in US8017612B2, “Piperazine compound and use thereof as a HCV polymerase inhibitor” (priority 2006, dated 2011).

What was measured:
[1] = molecular target: T1, HCV polymerase (NS5B) type 1a (Hepatitis C virus genotype 1a, UniProt P26664); assay: Assay of enzyme (HCV polymerase) inhibitory activity, type 1a enzyme; type: biochemical, HCV type 1a (cloned from the blood of patients); conditions: HCV polymerase inhibitory activity IC50, 1a, type 1a enzyme
T1 construct: made in house; host or cells: Escherichia coli (by the 'similar method' of the 1b enzyme)
In short: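 Reactions ran 60 min at 25° C in 20 mM Tris-HCl pH 7.5, 5 mM MgCl2, 50 mM NaCl, holding genotype 1a NS5B (1.5 μg/ml, Δ47 C-terminus, 6His), substrate RNA 5 μg/ml, UTP 2 μM with tritiated UTP and other NTPs 50 μM. IC50 derived from incorporated radiolabel in filter-trapped RNA relative to uninhibited reaction.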

[2] = molecular target: T2, HCV polymerase (NS5B) type 1b (Hepatitis C virus genotype 1b, UniProt P26663); assay: Assay of enzyme (HCV polymerase) inhibitory activity, type 1b enzyme; type: biochemical, HCV BK strain (type 1b); conditions: HCV polymerase inhibitory activity IC50, 1b, type 1b enzyme
T2 construct: a region encoding NS5B (J Virol 1991 March, 65(3), 1105-13, 544 amino acids after deletion of 47 amino acids on the C-terminal); 6xHis (C); made in house; host or cells: Escherichia coli
In short: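 IC50 derived from [3H]UTP incorporation into TCA-insoluble RNA, compared with and without test compound. Reaction (25 °C, 60 min, Tris pH 7.5, 5 mM MgCl2): E. coli-expressed 1b NS5B Δ47 with His tag at 0.5 μg/ml, 5 μg/ml run-off substrate RNA, ATP/GTP/CTP 50 μM, UTP 2 μM.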

SMILES	IC50 [1] [nM]	IC50 [2] [nM]
Cc1cc(=O)nc2sc(N3CCN(S(=O)(=O)c4ccc(OC(F)(F)F)cc4)[C@@H](C(=O)NCc4ccc(OC(F)(F)F)cc4)C3)nn12 [Example 1019, (R)-4-(5-methyl-7-oxo-7H-[1,3,4]thiadiazolo[3,2-a]pyrimidin-2-yl)-1-(4-trifluoromethoxy-benzenesulfonyl)-piperazine-2-carboxylic acid 4-trifluoromethoxy-benzylamide]	< 100	< 100
O=C(NCc1ccc(OC(F)(F)F)cc1)[C@H]1CN(c2nc3nc(C4CC4)ncc3s2)CCN1S(=O)(=O)c1ccc(OC(F)(F)C(F)F)cc1 [Example 1020, (R)-4-(5-cyclopropyl-thiazolo[4,5-d]pyrimidin-2-yl)-1-[4-(1,1,2,2-tetrafluoro-ethoxy)-benzenesulfonyl]-piperazine-2-carboxylic acid 4-trifluoromethoxy-benzylamide]	< 100	< 100
Nc1nc(C(F)(F)F)nc2nc(N3CCN(S(=O)(=O)c4ccc(OC(F)(F)F)cc4)[C@@H](C(=O)NCc4ccc(OC(F)(F)F)cc4)C3)sc12 [Example 1021, (R)-4-(7-amino-5-trifluoromethyl-thiazolo[4,5-d]pyrimidin-2-yl)-1-(4-trifluoromethoxy-benzenesulfonyl)-piperazine-2-carboxylic acid 4-trifluoromethoxy-benzylamide]	< 100	< 100
COc1nc(C(F)(F)F)nc2nc(N3CCN(S(=O)(=O)c4ccc(OC(F)(F)F)cc4)[C@@H](C(=O)NCc4ccc(OC(F)(F)F)cc4)C3)sc12 [Example 1022, (R)-4-(7-methoxy-5-trifluoromethyl-thiazolo[4,5-d]pyrimidin-2-yl)-1-(4-trifluoromethoxy-benzenesulfonyl)-piperazine-2-carboxylic acid 4-trifluoromethoxy-benzylamide]	100 to 1000	100 to 1000
O=C(NCc1ccc(OC(F)F)cc1)[C@H]1CN(c2nc3nc(C4CC4)ncc3s2)CCN1S(=O)(=O)c1ccc(C(F)(F)F)cc1 [Example 1023, (R)-4-(5-cyclopropyl-thiazolo[4,5-d]pyrimidin-2-yl)-1-(4-trifluoromethyl-benzenesulfonyl)-piperazine-2-carboxylic acid 4-difluoromethoxy-benzylamide]	< 100	< 100
CC(C)(C)c1ncc2sc(N3CCN(S(=O)(=O)c4ccc(OC(F)(F)F)cc4)[C@@H](C(=O)NCc4ccc(OC(F)(F)F)cc4)C3)nc2n1 [Example 1024, (R)-4-(5-tert-butyl-thiazolo[4,5-d]pyrimidin-2-yl)-1-(4-trifluoromethoxy-benzenesulfonyl)-piperazine-2-carboxylic acid 4-trifluoromethoxy-benzylamide]	< 100	< 100
CC(C)(C)c1ncc2sc(N3CCN(S(=O)(=O)c4ccc(C(F)(F)F)cc4)[C@@H](C(=O)NCc4ccc(OC(F)(F)F)cc4)C3)nc2n1 [Example 1025, (R)-4-(5-tert-butyl-thiazolo[4,5-d]pyrimidin-2-yl)-1-(4-trifluoromethyl-benzenesulfonyl)-piperazine-2-carboxylic acid 4-trifluoromethoxy-benzylamide]	< 100	< 100
Cc1c(Cl)c(=O)nc2sc(N3CCN(S(=O)(=O)c4ccc(OC(F)(F)F)cc4)[C@@H](C(=O)NCc4ccc(OC(F)(F)F)cc4)C3)nn12 [Example 1026, (R)-4-(6-chloro-5-methyl-7-oxo-7H-[1,3,4]thiadiazolo[3,2-a]pyrimidin-2-yl)-1-(4-trifluoromethoxy-benzenesulfonyl)-piperazine-2-carboxylic acid 4-trifluoromethoxy-benzylamide]	< 100	< 100
Cc1cc(=O)nc2sc(N3CCN(S(=O)(=O)c4ccc(OC(F)(F)F)cc4)[C@@H](C(=O)NCc4ccc(OC(F)F)cc4)C3)nn12 [Example 1027, (R)-4-(5-methyl-7-oxo-7H-[1,3,4]thiadiazolo[3,2-a]pyrimidin-2-yl)-1-(4-trifluoromethoxy-benzenesulfonyl)-piperazine-2-carboxylic acid 4-difluoromethoxy-benzylamide]	< 100	< 100
Cc1cc(=O)nc2sc(N3CCN(S(=O)(=O)c4ccc(C(F)(F)F)cc4)[C@@H](C(=O)NCc4ccc(OC(F)(F)F)cc4)C3)nn12 [Example 1028, (R)-4-(5-methyl-7-oxo-7H-[1,3,4]thiadiazolo[3,2-a]pyrimidin-2-yl)-1-(4-trifluoromethyl-benzenesulfonyl)-piperazine-2-carboxylic acid 4-trifluoromethoxy-benzylamide]	< 100	< 100
Cc1nc(C(N)=O)c2sc(N3CCN(S(=O)(=O)c4ccc(OC(F)(F)F)cc4)[C@@H](C(=O)NCc4ccc(OC(F)(F)F)cc4)C3)nc2n1 [Example 1029, 5-methyl-2-[(R)-4-(4-trifluoromethoxy-benzenesulfonyl)-3-(4-trifluoromethoxy-benzylcarbamoyl)-piperazin-1-yl]-thiazolo[4,5-d]pyrimidine-7-carboxylic acid amide]	100 to 1000	< 100
Cn1ncc2sc(N3CCN(S(=O)(=O)c4ccc(C(F)(F)F)cc4)[C@@H](C(=O)NCc4ccc(OC(F)(F)F)cc4)C3)nc2c1=O [Example 1030, (R)-4-(5-methyl-4-oxo-4,5-dihydro-thiazolo[4,5-d]pyridazin-2-yl)-1-(4-trifluoromethyl-benzenesulfonyl)-piperazine-2-carboxylic acid 4-trifluoromethoxy-benzylamide]	< 100	< 100
O=C(NCc1ccc(OC(F)(F)F)cc1)[C@H]1CN(c2nn3c(=O)c(C(F)(F)F)nnc3s2)CCN1S(=O)(=O)c1ccc(OC(F)(F)F)cc1 [Example 1031, (R)-4-(4-oxo-3-trifluoromethyl-4H-[1,3,4]thiadiazolo[2,3-c][1,2,4]triazin-7-yl)-1-(4-trifluoromethoxy-benzenesulfonyl)-piperazine-2-carboxylic acid 4-trifluoromethoxy-benzylamide]	100 to 1000	100 to 1000
Cc1cc(=O)nc2sc(N3CCN(S(=O)(=O)c4ccc(C(F)(F)F)cc4)[C@@H](C(=O)NCc4ccc(OC(F)F)cc4)C3)nn12 [Example 1032, (R)-4-(5-methyl-7-oxo-7H-[1,3,4]thiadiazolo[3,2-a]pyrimidin-2-yl)-1-(4-trifluoromethyl-benzenesulfonyl)-piperazine-2-carboxylic acid 4-difluoromethoxy-benzylamide]	< 100	< 100
O=C(O)c1ncc2sc(N3CCN(S(=O)(=O)c4ccc(OC(F)(F)F)cc4)[C@@H](C(=O)NCc4ccc(OC(F)(F)F)cc4)C3)nc2n1 [Example 1033, 2-[(R)-4-(4-trifluoromethoxy-benzenesulfonyl)-3-(4-trifluoromethoxy-benzylcarbamoyl)-piperazin-1-yl]-thiazolo[4,5-d]pyrimidine-5-carboxylic acid]	< 100	< 100
Nc1nnnc2nc(N3CCN(S(=O)(=O)c4ccc(OC(F)(F)F)cc4)[C@@H](C(=O)NCc4ccc(OC(F)(F)F)cc4)C3)sc12 [Example 1034, (R)-4-(4-amino-thiazolo[4,5-d][1,2,3]triazin-6-yl)-1-(4-trifluoromethoxy-benzenesulfonyl)-piperazine-2-carboxylic acid 4-trifluoromethoxy-benzylamide]	< 100	< 100
COc1nnnc2nc(N3CCN(S(=O)(=O)c4ccc(OC(F)(F)F)cc4)[C@@H](C(=O)NCc4ccc(OC(F)(F)F)cc4)C3)sc12 [Example 1035, (R)-4-(4-methoxy-thiazolo[4,5-d][1,2,3]triazin-6-yl)-1-(4-trifluoromethoxy-benzenesulfonyl)-piperazine-2-carboxylic acid 4-trifluoromethoxy-benzylamide]	< 100	< 100
N#Cc1ncc2sc(N3CCN(S(=O)(=O)c4ccc(OC(F)(F)F)cc4)[C@@H](C(=O)NCc4ccc(OC(F)F)cc4)C3)nc2n1 [Example 1036, (R)-4-(5-cyano-thiazolo[4,5-d]pyrimidin-2-yl)-1-(4-trifluoromethoxy-benzenesulfonyl)-piperazine-2-carboxylic acid 4-difluoromethoxy-benzylamide]	< 100	< 100
CCn1ncc2sc(N3CCN(S(=O)(=O)c4ccc(C(F)(F)F)cc4)[C@@H](C(=O)NCc4ccc(OC(F)(F)F)cc4)C3)nc2c1=O [Example 1037, (R)-4-(5-ethyl-4-oxo-4,5-dihydro-thiazolo[4,5-d]pyridazin-2-yl)-1-(4-trifluoromethyl-benzenesulfonyl)-piperazine-2-carboxylic acid 4-trifluoromethoxy-benzylamide]	< 100	< 100
O=C(NCc1ccc(OC(F)(F)F)cc1)[C@H]1CN(c2nn3c(=O)cc(C(F)(F)F)nc3s2)CCN1S(=O)(=O)c1ccc(OC(F)(F)F)cc1 [Example 1038, (R)-4-(5-oxo-7-trifluoromethyl-5H-[1,3,4]thiadiazolo[3,2-a]pyrimidin-2-yl)-1-(4-trifluoromethoxy-benzenesulfonyl)-piperazine-2-carboxylic acid 4-trifluoromethoxy-benzylamide]	100 to 1000	100 to 1000
